Data published in patent US11760775B2, “Steroids and protein-conjugates thereof” (Regeneron Pharmaceuticals, Inc., priority 2016, dated 2023).
“And” between values parts separate entries of the source, which are not always exact repeats. Equal entries are not always repeated. Where two headings read alike, the source gives them in different places.

How the values were obtained:
[1] = system: GR activation in 293/PRLR/GRE-Luc cells (HEK293/9xUAS-Luc2P/pBind-GR/PRLR-HA high cells); assay: GR co-activator luciferase reporter cell based assay in 293/PRLR/GRE-Luc cells; design: species or system human; settings: read-out: EC50 in 293/PRLR/GRE-Luc; 72 hrs of incubation
How it was run: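 EC50 was derived from a 10-point, four-parameter logistic fit of One-Glo luminescence. The reporter is driven by Gal4UAS through GR ligand-binding domain fused to Gal4 DBD in PRLR-expressing 293 cells, after ADC internalization or free steroid exposure. Activation below 10% of the free-payload maximum counts as minimal.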

[2] = system: GR activation in 293/GRE-Luc cells (293_PBind GR/UAS-Luc); assay: Luciferase reporter assay in antigen negative 293/GRE-Luc cells; type: cell-based, human; settings: read-out: EC50 in 293/GRE-Luc; 72 hrs of incubation; antigen negative cells
[3] = Pharmacokinetics of 4b and 6-I in mice (blood concentration-time); type: in vivo, C57BL/6j mice; settings: IP, 1 mg/Kg in male C57BL/6 mice; Mean
[4] = system: LPS-induced cytokine release (TNF-α); assay: Mouse model of LPS induced cytokine release (TNF-α in plasma); type: in vivo, C57BL/6j mice
CD11c+ splenic DCs = assay: Ex vivo LPS-induced cytokine production in mouse splenic CD11c+ dendritic cells; type: cell-based, C57Bl/6 mice; design: TNF-a / IL-12p70 / IL-1b / IL-6 / KC-GRO: unit not given here
Procedure: (§1) Supernatants were collected into 96-well round bottom tissue culture plates 24 hours post-LPS challenge and stored at −20° C. until further analysis. Cytokine concentrations in the supernatants were measured using a Pro-inflammatory Panel 1 (mouse) multiplex immunoassay kit (MesoScale Discovery, Cat #K15048D) according to manufacturer's instructions or Pro-inflammatory Panel 1 (human) multiplex immunoassay kit (MesoScale Discovery, Cat #K15049D). In brief, 50 μL/well of calibrators and samples (diluted in Diluent 1:2) were added to the plates pre-coated with capture antibodies and incubated at room temperature while shaking at 700 rpm for 2 hours. The plates were then washed 3 times with 1×PBS containing 0.05% (w/v) Tween-20, followed by the addition of 25 μL of Detection Antibody Solution diluted in Diluent 45. After 2-hour incubation at room temperature while shaking, the plates were washed 3 times, and 150 μL of 2× Read Buffer was added to each well. Electrochemiluminescence was immediately read on a MSD Spector® instrument. Data analysis was performed using GraphPad Prism™ software. Statistical significance within the groups was determined by one-way Anova with Turkey's multiple comparison post-test and standard error of mean (SEM±) calculated.

[5] = system: human monocyte derived-DC; assay: Ex vivo LPS-induced cytokine production in human monocyte derived DCs; type: cell-based; design: IL-6 / IL-8 / TNF-a / IL-12p70 / IL-1b: unit not given here
Procedure: The complete-RPMI with IL4 and GM-CSF was changed every three days. […]
as §1

For `C[C@@H]1C[C@H]2[C@@H]3CCC4=CC(=O)C=C[C@]4(C)[C@@]3(F)[C@@H](O)C[C@]2(C)[C@@]1(O)C(=O)CO` [Dexamethasone, dexamethasone, reference compound], the EC50 [1] was < 5 nM, the EC50 [2] was < 5 nM and the AUCINF [3] was 562 ng·h/mL. For the same compound, the AUClast [3] was 545 ng·h/mL, the Cmax [3] was 231 ng/mL and the “Inhibition of TNF-α production” value ([4]; 5 mpk ip before LPS challenge, plasma at 2 hr time point) was “significantly inhibit TNF-α”. The “TNF-a” value ([4]; plasma 2 hr post LPS challenge, 5MPK ip (−2 h) prior to LPS, individual mice, listed as DEX) was 644.3 pg/mL and 508.5 pg/mL and 487.1 pg/mL, the IL-1b (CD11c+ splenic DCs; 10 nM + LPS) was 34.76 ± 4.33 and the IL-6 (CD11c+ splenic DCs; 10 nM + LPS) was 714.89 ± 77.13. It also gave an IL-12p70 (CD11c+ splenic DCs; 10 nM + LPS) of 30.41 ± 3.22, a KC-GRO (CD11c+ splenic DCs; 10 nM + LPS) of 399.40 ± 49.75 and a TNF-a (CD11c+ splenic DCs; 10 nM + LPS) of 2496.27 ± 415.75. For the same compound, the “LPS-induced cytokine responses in CD11c+ DCs” value (CD11c+ splenic DCs; 10 nM and 100 nM for 24 hours before LPS 10 ng/mL) was “significantly decreased LPS-induced cytokine responses”, the IL-1b (CD11c+ splenic DCs; 10 nM, no LPS) was 6.299 ± 0.33 and the IL-6 (CD11c+ splenic DCs; 10 nM, no LPS) was 98.93 ± 8.98. For the same compound, the IL-12p70 (CD11c+ splenic DCs; 10 nM, no LPS) was 8.55 ± 1.08, the KC-GRO (CD11c+ splenic DCs; 10 nM, no LPS) was 75.75 ± 8.03 and the TNF-a (CD11c+ splenic DCs; 10 nM, no LPS) was 0 ± 0. The IL-1b (CD11c+ splenic DCs; 100 nM + LPS) was 10.58 ± 0.88, the IL-6 (CD11c+ splenic DCs; 100 nM + LPS) was 303.48 ± 11.37 and the IL-12p70 (CD11c+ splenic DCs; 100 nM + LPS) was 9.29 ± 3.28. For the same compound, the KC-GRO (CD11c+ splenic DCs; 100 nM + LPS) was 233.49 ± 18.48, the TNF-a (CD11c+ splenic DCs; 100 nM + LPS) was 405.49 ± 70.23 and the IL-1b (CD11c+ splenic DCs; 100 nM, no LPS) was 5.25 ± 0.12. It also gave an IL-6 (CD11c+ splenic DCs; 100 nM, no LPS) of 55.07 ± 1.76, an IL-12p70 (CD11c+ splenic DCs; 100 nM, no LPS) of 6.05 ± 1.13 and a KC-GRO (CD11c+ splenic DCs; 100 nM, no LPS) of 65.99 ± 2.75. The TNF-a (CD11c+ splenic DCs; 100 nM, no LPS) was 0 ± 0, the IL-1b [5] was 0.625 ± 0.006 and the Pro-inflammatory cytokine production ([5]; Condition 1: entire 7-day conditioning period) was “significantly reduced pro-inflammatory cytokine production”. The IL-1b ([5]; Condition 1, 10 nM + LPS) was 1.77 ± 0.11, the IL-6 ([5]; Condition 1, 10 nM + LPS) was 687.45 ± 2.17 and the IL-8 ([5]; Condition 1, 10 nM + LPS) was 8789.98 ± 126.98. The IL-12p70 ([5]; Condition 1, 10 nM + LPS) was 4.83 ± 0.05, the TNF-a ([5]; Condition 1, 10 nM + LPS) was 242.34 ± 10.75 and the IL-6 ([5]; Condition 1, 10 nM, no LPS) was 2.68 ± 0.03. It also gave an IL-8 ([5]; Condition 1, 10 nM, no LPS) of 174.59 ± 0.68, an IL-12p70 ([5]; Condition 1, 10 nM, no LPS) of 0.65 ± 0.02 and a TNF-a ([5]; Condition 1, 10 nM, no LPS) of 2.32 ± 0.098. For the same compound, the “Production of IL12p70, IL6 and TNF-α” value ([5]; Condition 2: conditioning of mature monocyte-derived DCs) was “significantly decreased the production of IL12p70, IL6 and TNF-α”, the IL-1b ([5]; Condition 2, 10 nM + LPS) was 37.88 ± 1.90 and the IL-6 ([5]; Condition 2, 10 nM + LPS) was 5747.37 ± 234.08. The IL-8 ([5]; Condition 2, 10 nM + LPS) was 3314.0 ± 37.86, the IL-12p70 ([5]; Condition 2, 10 nM + LPS) was 6.32 ± 1.69 and the TNF-a ([5]; Condition 2, 10 nM + LPS) was 994.92 ± 73.66. For the same compound, the IL-1b ([5]; Condition 2, 10 nM, no LPS) was 0.611 ± 0.003, the IL-6 ([5]; Condition 2, 10 nM, no LPS) was 14.76 ± 0.267 and the IL-8 ([5]; Condition 2, 10 nM, no LPS) was 288.23 ± 6.02. It also gave an IL-12p70 ([5]; Condition 2, 10 nM, no LPS) of 0.64 ± 0.03 and a TNF-a ([5]; Condition 2, 10 nM, no LPS) of 1.73 ± 0.02.
